Experimental data taken from patent publication US20230391760A1, “HETEROCYCLIC GLP-1 AGONISTS” (Gasherbrum Bio, Inc., priority 2020, published 2023).
pEC50: −log10 of the molar value.

Target: GLP-1 Receptor (Homo sapiens, UniProt P43220)
Experiment: GLP-1R agonist cAMP stimulation assay (HEK293/GLP1R/CRE-LUC cells, cAMP dynamic 2 Kit)
Type: cell-based
Conditions: HEK293/CRE-Luc cell line stably expressing the GLP-1 Receptor, 30 min at 37° C.
Summary of the method: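 HEK293 cells stably expressing human GLP-1R with CRE-luciferase, 1000 cells/well in DPBS with 0.5 mM IBMX and 0.1% BSA, treated with compound in 1/2-log serial dilution for 30 min at 37 °C. cAMP then detected by HTRF (cAMP-d2 plus anti-cAMP cryptate), 1 h at room temperature in the dark.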

GLP-1 Receptor, sequence (P43220 24-463, species assumed): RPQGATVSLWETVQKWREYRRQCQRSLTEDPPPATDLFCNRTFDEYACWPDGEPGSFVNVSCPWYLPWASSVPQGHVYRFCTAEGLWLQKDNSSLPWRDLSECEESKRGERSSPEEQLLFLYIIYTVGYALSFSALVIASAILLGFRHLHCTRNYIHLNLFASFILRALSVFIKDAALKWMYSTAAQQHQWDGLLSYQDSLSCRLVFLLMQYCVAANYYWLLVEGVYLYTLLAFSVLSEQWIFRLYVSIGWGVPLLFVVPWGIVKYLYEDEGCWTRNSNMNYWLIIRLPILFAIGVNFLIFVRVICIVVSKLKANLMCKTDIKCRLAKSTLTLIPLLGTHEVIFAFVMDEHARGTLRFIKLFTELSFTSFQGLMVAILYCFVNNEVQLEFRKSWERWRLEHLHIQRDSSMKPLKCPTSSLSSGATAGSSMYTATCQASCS

| SMILES | pEC50 |
| --- | --- |
| C[C@]1(c2ccc(Cl)cc2F)Oc2cccc(C3CCN(Cc4nc5cc(-c6noc(=O)[nH]6)cnc5n4CC4(C#N)CC4)CC3)c2O1 [Compound 334a, 1-{[2-({4-[(2S)-2-(4-chloro-2-fluorophenyl)-2-methyl-2H-1,3-benzodioxol-4-yl]piperidin-1-yl}methyl)-6-(5-oxo-4,5-dihydro-1,2,4-oxadiazol-3-yl)-3H-imidazo[4,5-b]pyridin-3-yl]methyl}cyclopropane-1-carbonitrile] | 9.60 |
| CC1(c2ccc(C#N)cc2F)Oc2cccc(C3CCN(Cc4nc5cc(-c6noc(=O)[nH]6)ncc5n4C[C@@H]4CCO4)CC3)c2O1 (stereo partly drawn) [Compound 341a, 3-fluoro-4-(2-methyl-4-{1-[(3-{[(2S)-oxetan-2-yl]methyl}-6-(5-oxo-4,5-dihydro-1,2,4-oxadiazol-3-yl)-3H-imidazo[4,5-c]pyridin-2-yl)methyl]piperidin-4-yl}-2H-1,3-benzodioxol-2-yl)benzonitrile] | 10.59 |
| C[C@]1(c2ccc(C#N)cc2F)Oc2cccc(C3CCN(Cc4nc5cc(-c6n[nH]c(C(F)(F)F)n6)ncc5n4C[C@@H]4CCO4)CC3)c2O1 [Compound 342a, 3-fluoro-4-[(2S)-2-methyl-4-{1-[(3-{[(2S)-oxetan-2-yl]methyl}-6-[5-(trifluoromethyl)-4H-1,2,4-triazol-3-yl]-3H-imidazo[4,5-c]pyridin-2-yl)methyl]piperidin-4-yl}-2H-1,3-benzodioxol-2-yl]benzonitrile] | 11.19 |
| CC1(c2ccc(Cl)cn2)Oc2cccc(C3CCN(Cc4nc5cc(-c6noc(=O)[nH]6)ncc5n4C[C@@H]4CCO4)CC3)c2O1 (stereo partly drawn) [Compound 343a, 3-[2-({4-[2-(5-chloropyridin-2-yl)-2-methyl-2H-1,3-benzodioxol-4-yl]piperidin-1-yl}methyl)-3-{[(2S)-oxetan-2-yl]methyl}-3H-imidazo[4,5-c]pyridin-6-yl]-4,5-dihydro-1,2,4-oxadiazol-5-one] | 10.10 |
| CC1(c2ccc(Cl)cn2)Oc2cccc(C3CCN(Cc4nc5cc(-c6n[nH]c(C(F)(F)F)n6)ncc5n4C[C@@H]4CCO4)CC3)c2O1 (stereo partly drawn) [Compound 344a, 5-chloro-2-(2-methyl-4-{1-[(3-{[(2S)-oxetan-2-yl]methyl}-6-[5-(trifluoromethyl)-4H-1,2,4-triazol-3-yl]-3H-imidazo[4,5-c]pyridin-2-yl)methyl]piperidin-4-yl}-2H-1,3-benzodioxol-2-yl)pyridine] | 10.66 |
| C[C@]1(c2ccc(Cl)cc2F)Oc2cccc(C3CCN(Cc4nc5cc(-c6nnc(C(F)(F)F)[nH]6)ncc5n4CC4(C#N)CC4)CC3)c2O1 [Compound 345a, 1-{[2-({4-[(2S)-2-(4-chloro-2-fluorophenyl)-2-methyl-2H-1,3-benzodioxol-4-yl]piperidin-1-yl}methyl)-6-[5-(trifluoromethyl)-4H-1,2,4-triazol-3-yl]-3H-imidazo[4,5-c]pyridin-3-yl]methyl}cyclopropane-1-carbonitrile] | 10.85 |
| C[C@]1(c2ccc(Cl)cc2F)Oc2cccc(C3CCN(Cc4nc5cc(-c6noc(=O)[nH]6)ncc5n4CC4(C#N)CC4)CC3)c2O1 [Compound 346a, 1-{[2-({4-[(2S)-2-(4-chloro-2-fluorophenyl)-2-methyl-2H-1,3-benzodioxol-4-yl]piperidin-1-yl}methyl)-6-(5-oxo-4,5-dihydro-1,2,4-oxadiazol-3-yl)-3H-imidazo[4,5-c]pyridin-3-yl]methyl}cyclopropane-1-carbonitrile] | 10.82 |
| CC1(c2ccc(Cl)cc2)Oc2cccc(C3CCN(Cc4nc5cc(-c6noc(=O)[nH]6)ncc5n4C[C@@H]4CCO4)CC3)c2O1 (stereo partly drawn) [Compound 347a, 3-[2-({4-[2-(4-chlorophenyl)-2-methyl-2H-1,3-benzodioxol-4-yl]piperidin-1-yl}methyl)-3-{[(2S)-oxetan-2-yl]methyl}-3H-imidazo[4,5-c]pyridin-6-yl]-4,5-dihydro-1,2,4-oxadiazol-5-one] | 10.66 |
| C[C@]1(c2ccc(Cl)cc2F)Oc2cccc(C3CCN(Cc4nc5cc(-c6noc(=O)[nH]6)nnc5n4C[C@@H]4CCO4)CC3)c2O1 [Compound 348a, 3-[6-({4-[(2S)-2-(4-chloro-2-fluorophenyl)-2-methyl-2H-1,3-benzodioxol-4-yl]piperidin-1-yl}methyl)-7-{[(2S)-oxetan-2-yl]methyl}-7H-imidazo[4,5-c]pyridazin-3-yl]-4,5-dihydro-1,2,4-oxadiazol-5-one] | 10.21 |
| CCc1nnc(-c2cnc3c(c2)nc(CN2CCC(c4cccc5c4O[C@@](C)(c4ccc(Cl)cc4F)O5)CC2)n3C[C@@H]2CCO2)[nH]1 [Compound 352a, 4-[(2S)-2-(4-chloro-2-fluorophenyl)-2-methyl-2H-1,3-benzodioxol-4-yl]-1-{[6-(5-ethyl-4H-1,2,4-triazol-3-yl)-3-{[(2S)-oxetan-2-yl]methyl}-3H-imidazo[4,5-b]pyridin-2-yl]methyl}piperidine] | 9.37 |
| CC1(c2ccc(C#N)cc2Cl)Oc2cccc(C3CCN(Cc4nc5cc(-c6nnc(C(F)(F)F)[nH]6)ccc5n4C[C@@H]4CCO4)CC3)c2O1 (stereo partly drawn) [Compound 353a, 3-chloro-4-(2-methyl-4-{1-[(1-{[(2S)-oxetan-2-yl]methyl}-5-[5-(trifluoromethyl)-4H-1,2,4-triazol-3-yl]-1H-1,3-benzodiazol-2-yl)methyl]piperidin-4-yl}-2H-1,3-benzodioxol-2-yl)benzonitrile] | 10.59 |

Now from value to compound:

| pEC50 | SMILES |
| --- | --- |
| 9.96 | CC1(c2ccc(C#N)cn2)Oc2cccc(C3CCN(Cc4nc5cc(-c6nnc(C(F)(F)F)[nH]6)ccc5n4C[C@@H]4CCO4)CC3)c2O1 (stereo partly drawn) [Compound 354a, 6-(2-methyl-4-{1-[(1-{[(2S)-oxetan-2-yl]methyl}-5-[5-(trifluoromethyl)-4H-1,2,4-triazol-3-yl]-1H-1,3-benzodiazol-2-yl)methyl]piperidin-4-yl}-2H-1,3-benzodioxol-2-yl)pyridine-3-carbonitrile] |
| 8.15 | CC1(c2ccc(Cl)cc2F)Oc2cccc(C3CCN(Cc4nc5cc(-c6n[nH]c(=O)[nH]6)ccc5n4C[C@@H]4CCO4)CC3)c2O1 (stereo partly drawn) [Compound 355a, 3-[2-({4-[2-(4-chloro-2-fluorophenyl)-2-methyl-2H-1,3-benzodioxol-4-yl]piperidin-1-yl}methyl)-1-{[(2S)-oxetan-2-yl]methyl}-1H-1,3-benzodiazol-5-yl]-4,5-dihydro-1H-1,2,4-triazol-5-one] |
| 10.85 | C[C@]1(c2ccc(Cl)cc2F)Oc2cccc(C3CCN(Cc4nc5cc(-c6nnc(C(F)(F)F)[nH]6)nnc5n4C[C@@H]4CCO4)CC3)c2O1 [Compound 359a, 4-[(2S)-2-(4-chloro-2-fluorophenyl)-2-methyl-2H-1,3-benzodioxol-4-yl]-1-[(7-{[(2S)-oxetan-2-yl]methyl}-3-[5-(trifluoromethyl)-4H-1,2,4-triazol-3-yl]-7H-imidazo[4,5-c]pyridazin-6-yl)methyl]piperidine] |
| 11.04 | C[C@]1(c2ccc(Cl)cc2F)Oc2cccc(C3CCN(Cc4nc5cc(-c6nnc(C(F)F)[nH]6)ncc5n4C[C@@H]4CCO4)CC3)c2O1 [Compound 360a, 4-[(2S)-2-(4-chloro-2-fluorophenyl)-2-methyl-2H-1,3-benzodioxol-4-yl]-1-({6-[5-(difluoromethyl)-4H-1,2,4-triazol-3-yl]-3-{[(2S)-oxetan-2-yl]methyl}-3H-imidazo[4,5-c]pyridin-2-yl}methyl)piperidine] |
| 10.47 | CC1(c2ccc(Cl)cc2)Oc2cccc(C3CCN(Cc4nc5cc(-c6nnc(C(F)(F)F)[nH]6)ncc5n4C[C@@H]4CCO4)CC3)c2O1 (stereo partly drawn) [Compound 361a, 4-[2-(4-chlorophenyl)-2-methyl-2H-1,3-benzodioxol-4-yl]-1-[(3-{[(2S)-oxetan-2-yl]methyl}-6-[5-(trifluoromethyl)-4H-1,2,4-triazol-3-yl]-3H-imidazo[4,5-c]pyridin-2-yl)methyl]piperidine] |
| 10.92 | C[C@]1(c2ccc(Cl)cc2F)Oc2cccc(C3CCN(Cc4nc5cc(-c6nnc(C(F)(F)F)[nH]6)ncc5n4C[C@@H]4CCO4)CC3)c2O1 [Compound 366a, 4-[(2S)-2-(4-chloro-2-fluorophenyl)-2-methyl-2H-1,3-benzodioxol-4-yl]-1-[(3-{[(2S)-oxetan-2-yl]methyl}-6-[5-(trifluoromethyl)-4H-1,2,4-triazol-3-yl]-3H-imidazo[4,5-c]pyridin-2-yl)methyl]piperidine] |
| 11.20 | C[C@]1(c2ccc(Cl)cc2F)Oc2cccc(C3CCN(Cc4nc5cc(-c6noc(=O)[nH]6)ncc5n4C[C@@H]4CCO4)CC3)c2O1 [Compound 375a, 3-[2-({4-[(2S)-2-(4-chloro-2-fluorophenyl)-2-methyl-2H-1,3-benzodioxol-4-yl]piperidin-1-yl}methyl)-3-{[(2S)-oxetan-2-yl]methyl}-3H-imidazo[4,5-c]pyridin-6-yl]-4,5-dihydro-1,2,4-oxadiazol-5-one] |
| 9.32 | Fc1cc(Cl)ccc1COc1ncccc1C1=CCN(Cc2nc3cc(-c4nnc(C(F)(F)F)[nH]4)ccc3n2C[C@@H]2CCO2)CC1 [Compound 390a, 2-[(4-chloro-2-fluorophenyl)methoxy]-1′-[(1-{[(2S)-oxetan-2-yl]methyl}-5-[5-(trifluoromethyl)-4H-1,2,4-triazol-3-yl]-1H-1,3-benzodiazol-2-yl)methyl]-1′,2′,3′,6′-tetrahydro-3,4′-bipyridine] |
| 10.20 | Fc1cc(Cl)ccc1COc1ncccc1C1CCN(Cc2nc3cc(-c4nnc(C(F)(F)F)[nH]4)ccc3n2C[C@@H]2CCO2)CC1 [Compound 393a, 2-[(4-{2-[(4-chloro-2-fluorophenyl)methoxy]pyridin-3-yl}piperidin-1-yl)methyl]-1-{[(2S)-oxetan-2-yl]methyl}-5-[5-(trifluoromethyl)-4H-1,2,4-triazol-3-yl]-1H-1,3-benzodiazole] |
| 8.49 | O=C(NC1CC1)c1ccc2c(c1)nc(CN1CCC(c3cccc(OCc4ccc(Cl)cc4F)n3)CC1)n2C[C@@H]1CCO1 [Compound 396a, 2-[(4-{6-[(4-chloro-2-fluorophenyl)methoxy]pyridin-2-yl}piperidin-1-yl)methyl]-N-cyclopropyl-1-{[(2S)-oxetan-2-yl]methyl}-1H-1,3-benzodiazole-5-carboxamide] |
